Laboratory results as given in patent US4489163A, “rCRF and analogs” (The Salk Institute for Biological Studies, priority 1983, dated 1984).
pEC50: −log10 of the molar value. “Also recorded” adds a separate entry of the source.

Legend:
[1] = test system: cultured rat pituitary cells; experiment: secretion of ACTH and β-endorphin by cultured rat pituitary cells in vitro; format: cell-based
From the text: (§1) The synthetic and the natural rCRF were examined for their effects on the secretion of ACTH and β-endorphin in vitro and the synthetic rCRF was also examined in vivo.

[2] = test system: ACTH and β-endorphin-like (β-END-LI) secretion; experiment: ACTH and β-END-LI secretion in vivo after intravenous administration; set-up: species or system rats; details: for stimulation of ACTH and β-END-LI secretion in vivo (words): several rat preparations
From the text: as §1

[3] = lowering of blood pressure in dogs; format: in vivo
[4] = lowering of blood pressure in rats; format: in vivo
[5] = activity and learning performance after administration into the ventricles; format: in vivo; details: administered into the ventricles, rats
From the text: Because ACTH and β-END secretion is the "sine qua non" of an animal's response to stress, it was not surprising that rCRF has significant effects on the brain as a mediator of the body's stress response. Accordingly, rCRF may also find application in modifying the mood, learning and behavior of normal and mentally disordered individuals. Because rCRF and its analogs elevate the levels of ACTH, β-END, β-lipotropin, other pro-opiomelanocortin gene products and corticosterone, its administration can be used to induce their effects on the brain and its periphery to thereby influence memory, mood, pain appreciation, etc., and more specifically, alertness, depression and/or anxiety.

Compound: CC[C@H](C)[C@H](NC(=O)[C@@H](NC(=O)[C@H](CCC(=O)O)NC(=O)[C@H](CCSC)NC(=O)[C@H](CC(C)C)NC(=O)[C@H](CCCCN)NC(=O)[C@H](CCCNC(=N)N)NC(=O)[C@H](CC(N)=O)NC(=O)[C@H](CO)NC(=O)[C@H](Cc1c[nH]cn1)NC(=O)[C@H](C)NC(=O)[C@H](CCC(N)=O)NC(=O)[C@H](CCC(N)=O)NC(=O)[C@H](C)NC(=O)[C@H](CC(C)C)NC(=O)[C@H](CCC(N)=O)NC(=O)[C@H](CCC(=O)O)NC(=O)[C@H](C)NC(=O)[C@H](CCCNC(=N)N)NC(=O)[C@H](C)NC(=O)[C@H](CCSC)NC(=O)[C@H](CCC(=O)O)NC(=O)[C@H](CC(C)C)NC(=O)[C@@H](NC(=O)[C@H](CCC(=O)O)NC(=O)[C@H](CCCNC(=N)N)NC(=O)[C@H](CC(C)C)NC(=O)[C@H](CC(C)C)NC(=O)[C@H](Cc1c[nH]cn1)NC(=O)[C@H](Cc1ccccc1)NC(=O)[C@@H](NC(=O)[C@H](CC(C)C)NC(=O)[C@H](CC(=O)O)NC(=O)[C@H](CC(C)C)NC(=O)[C@H](CO)NC(=O)[C@@H](NC(=O)[C@@H]1CCCN1C(=O)[C@@H]1CCCN1C(=O)[C@H](CCC(=O)O)NC(=O)[C@H](CCC(=O)O)NC(=O)[C@@H](N)CO)[C@@H](C)CC)[C@@H](C)O)C(C)C)[C@@H](C)CC)C(N)=O [synthetic rCRF]
- pEC50 ([1]; concentration giving half-maximal response, cultured rat pituitary cells): ~10.00
- minimal response, secretion of ACTH and β-endorphin ([1]; concentration giving minimal response, cultured rat pituitary cells): about 10 picomolar
- maximal concentrations, secretory response at a plateau level ([1]; cultured rat pituitary cells): > 5 nM
- stimulation of secretion of ACTH and β-endorphin in vitro ([1]; in vitro): high potency; also recorded: stimulate ACTH and β-endorphin activies
- elevation of ACTH and β-endorphin-like (β-END-LI) secretion ([2]; in vivo doses from 30 ng to 3 μg/Kg of body weight): 5-20 fold
- stimulation of ACTH and β-END-LI secretion in vivo (words) [2]: stimulate ACTH and β-endorphin activies
- stimulation of ACTH and β-END-LI secretion in vivo (words) ([2]; listed as Synthetic rCRF): powerful stimulator of ACTH and β-END-LI secretion in vivo
- time plasma levels of ACTH and β-END-LI are elevated ([2]; intravenous, nembutal-anesthesized male rats and quiescent male or female rats with indwelling cannulae): 5 to 20 min
- lowering of blood pressure [3]: dramatic effect to lower blood pressure
- lowering of blood pressure ([4]; rats): dramatic effect to lower blood pressure
- lowering of blood pressure ([4]; species not given, general procedure of Example III): substantially lower blood pressure for an extended time period
- activity [5]: increases activity
- learning performance [5]: improves learning performance
